Measured values taken from ChEMBL document CHEMBL1132365, “A multisubstrate adduct inhibitor of AICAR transformylase” (J Med Chem, 1999).

Tests used:
[1] = target: T1, Bifunctional purine biosynthesis protein ATIC (Homo sapiens, UniProt P31939); assay: Binding affinity towards AICAR formyltransferase
[2] = target: T1, Bifunctional purine biosynthesis protein ATIC; assay: Inhibitory activity against AICAR formyltransferase
[3] = target: AICAR transformylase (Lactobacillus casei); assay: Inhibitory activity against AICAR formyltransferase

T1 sequence (P31939 whole entry): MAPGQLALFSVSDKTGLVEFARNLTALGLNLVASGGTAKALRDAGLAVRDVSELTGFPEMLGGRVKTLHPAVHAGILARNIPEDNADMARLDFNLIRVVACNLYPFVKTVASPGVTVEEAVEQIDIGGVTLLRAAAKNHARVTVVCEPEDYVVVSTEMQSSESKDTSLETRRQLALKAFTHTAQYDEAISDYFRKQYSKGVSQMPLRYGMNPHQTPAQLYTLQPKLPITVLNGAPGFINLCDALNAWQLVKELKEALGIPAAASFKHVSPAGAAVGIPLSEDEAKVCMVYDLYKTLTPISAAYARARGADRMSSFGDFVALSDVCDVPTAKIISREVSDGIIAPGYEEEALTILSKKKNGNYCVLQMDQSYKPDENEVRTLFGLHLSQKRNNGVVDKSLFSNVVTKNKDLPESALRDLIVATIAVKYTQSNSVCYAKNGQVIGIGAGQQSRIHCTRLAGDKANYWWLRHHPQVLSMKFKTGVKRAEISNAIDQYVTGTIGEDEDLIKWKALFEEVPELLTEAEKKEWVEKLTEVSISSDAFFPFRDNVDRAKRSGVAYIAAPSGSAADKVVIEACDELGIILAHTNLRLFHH

| Kd [1] | IC50 [2] | IC50 [3] | SMILES |
| --- | --- | --- | --- |
| 20 nM | 125 nM |  | NC(=O)c1ncn(C2O[C@H](COP(=O)(O)O)[C@@H](O)[C@H]2O)c1/C=C/C(=O)N(CC1=NC2C(=O)NC(N)=NC2C=C1)c1ccc(C(=O)N[C@@H](CCC(=O)O)C(=O)O)cc1 (stereo partly drawn) |
|  |  | 6400 nM | Nc1nc(=O)c2nc(CN(C=O)c3ccc(C(=O)N[C@H](CCC(=O)O)C(=O)O)cc3)ccc2[nH]1 |
